Assay [1] deals with T1, hDM2 (Homo sapiens, UniProt Q00987).
T1 construct: gene MDM2; 15N-labelled for NMR; the anisotropy footnote prints hDM2_17-25, apparently a misprint of 17-125
The assay can be described thus: 1H-15N HSQC NMR titration. The note with it: read-out: NMR Binding^[d] (K d/μM). The text has this:
1H-15N HSQC NMR titration on hDM2

Assay [2] has as its target T1, hDM2. The assay can be described thus: fluorescence anisotropy competition, displacement of fluorescein-labelled p53 tracer peptide. The class given is binding. As to conditions: for IC50: read-out: Fluorescence anisotropy^[c] IC50. The text has this: fluorescence anisotropy competition, displacement of fluorescein-labelled p53 tracer peptide on hDM2
For assay [3], the target named is T1, hDM2. The assay can be described thus: biochemical. The note with it: read-out: FA IC50. Further details: fluorescence anisotropy competition, displacement of fluorescein-labelled p53 15-31 peptide from hDM2. Here is the method: The assay was then implemented similarly to the examples above to give final compound concentrations between 160 – 0.08 µM. IC50 values were determined and curves were fit in Origin Pro 2019b using a non-linear curve fitting with the dose response fitting procedure and Levenberg Marquardt iteration algorithm. 17 5.2 Fluorescence anisotropy assays The fluorescein-labelled p5315-31 Flu transactivation domain peptide (Ac-[…](Flu)- NH2) was purchased from Peptide Synthetics. The assay was carried out using Perkin-Elmer 384-well Opti-plate assay plates (6007270). Fluorescence anisotropy assays were performed in a buffer containing 40 mM phosphate pH 7.5, 200 mM NaCl and 0.02 mg/mL bovine serum albumin (PBSA). Results were collected using a Perkin-Elmer Envision 2103 Multilabel Reader using a 431 nm mirror, 480(104) nm excitation filter, and 535(208) and 535(209) nm emission filters after 2.5 or 24 hours of incubation at room temperature. Test well anisotropy values were then calculated using the blank corrected S and P channel values using the following formula: […]

A word on the IC50: it is the concentration needed to halve the response being measured. On to `O=C(COC1CCc2cc(Cl)ccc21)N1CCC(c2ccccc2)C1` (centres unmarked) [P2], for which, in assay [1], the Kd is 34 ± 13 µM. Also, in assay [2], the IC50 came out at 15 ± 0.1 µM.

Turning to `O=C(CO[C@@H]1CCc2cc(Cl)ccc21)N1CC[C@@H](c2ccccc2)C1` [P2a], the IC50 in assay [3] was 28.2 ± 3 µM.

Regarding `O=C(CO[C@H]1CCc2cc(Cl)ccc21)N1CC[C@@H](c2ccccc2)C1` [P2b], the IC50 in assay [3] stood at 36.5 ± 3.5 µM.

Regarding `CN1C(=O)C(c2ccc(Cl)cc2)c2cc(Cl)ccc21` (centres unmarked) [P3], in assay [2], the IC50 is greater than 100 µM.

As for `CN(C(=O)C(=O)c1ccc(Cl)cc1)c1ccc(Cl)cc1` [P4], the Kd in assay [1] was found to be 35 ± 16 µM. Moreover, the IC50 in assay [2] was greater than 30 µM.

In the case of `O=C1Nc2cc(Cl)ccc2C12CC2c1ccc(Cl)cc1` (centres unmarked) [P5], the “Fluorescence anisotropy^[c] IC50 [μM]” value in assay [2] ([…] hDM2, […] tracer, […] BSA, […] NaCl, […] DMSO, […] phosphate pH […] h, unreliable (limited solubility)) is ~ 10 μM.

With `O=C1Nc2cc(Cl)ccc2C1c1c[nH]c2cc(Cl)ccc12` (centres unmarked) [P6], the 50% inhibitory concentration (IC50) in assay [2] turned out to be 0.94 ± 0.03 µM.

Turning to `CCOCC1CC12C(=O)Nc1cc(Cl)ccc12` (centres unmarked) [P7], the IC50 in assay [2] was greater than 160 µM.

As for `O=C(COC1CCCC1)N1CCC(c2ccccc2)C1` (centres unmarked) [SI1], the IC50 in assay [3] was greater than 200 µM.

For the molecule `O=C(COC1CCc2cc(Cl)ccc21)N1CCCC1` (centres unmarked) [SI2], the IC50 in assay [3] was greater than 200 µM.

As for `O=C(CO[C@H]1CCc2cc(Cl)ccc21)N1CC[C@H](c2ccccc2)C1` [ent-P2a], the IC50 in assay [3] is 26 ± 3.8 µM.

For the molecule `O=C(CO[C@@H]1CCc2cc(Cl)ccc21)N1CC[C@H](c2ccccc2)C1` [ent-P2b], the 50% inhibitory concentration (IC50) in assay [3] came to 28.6 ± 2.9 µM.

Source of the values: article PMC7496268, “Activity‐Directed Synthesis of Inhibitors of the p53/hDM2 Protein–Protein Interaction” (Chemistry (Weinheim an Der Bergstrasse, Germany), 2020).
